According to US20140005163A1 (NOVARTIS AG, priority 2010, published 2014):

Assays:
PI3K alpha = target: T1, PI3K alpha (Homo sapiens, UniProt P42336); experiment: PI3K alpha kinase assay (Kinase-Glo luminescence); type: biochemical
T1 construct: p85(iSH2) fusion partner (see partner chain) (N); His tag (C); made in house; host or cells: baculovirus; Tn5 (Trichoplusia ni) or TiniPro insect cells
Outline: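 PI3K alpha at 10 nM with 1 μM ATP and 10 μg/mL phosphatidylinositol in 10 mM TRIS pH 7.5, 3 mM MgCl2, 50 mM NaCl, 0.05% CHAPS, 1 mM DTT, 60 min at room temperature. Remaining ATP read by Kinase-Glo luminescence. IC50 by 4-parameter fit over 8 concentrations.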

[1] = tested on: PKB Ser473 phosphorylation in Rat1-myr-HA-p110 delta cells; experiment: Reverse protein array assay, PKB Ser473 phosphorylation in Rat1-myr-p110 delta cells; type: cell-based; details: read-out: p-PKB IC50
Outline: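 Rat1 cells expressing myristoylated HA-tagged p110 alpha, beta or delta were plated for at least 20 h, then exposed to 8-step serial compound dilutions (0.2% DMSO final) for 30 min at 37 °C. Lysates were spotted at four dilutions on protein microarrays, and relative fluorescence intensity of phospho-Ser473 PKB was calculated.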

[2] = tested on: S6 Ribosomal Protein phosphorylation Ser235/236 in TSC1 null mouse embryo fibroblast (MEF) cells; experiment: Reverse protein array assay, S6 Ribosomal Protein phosphorylation Ser235/236 in TSC1 null MEF cells; type: cell-based; details: 1 h, pS6 ribosomal protein Ser235/236, 60 minutes incubation, read-out: p-S6 IC50
Outline: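 TSC1−/− MEFs, seeded and held ≥20 h at 37 °C/5% CO2, were exposed to 8-step serial compound dilutions (0.02% DMSO final; DMSO vehicle control) for 60 min at 37 °C. Cells were then lysed on ice for 10 min and lysates spotted onto reverse protein array chips.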

T1 sequence (P42336 with tags, fused parts or gaps limits assumed): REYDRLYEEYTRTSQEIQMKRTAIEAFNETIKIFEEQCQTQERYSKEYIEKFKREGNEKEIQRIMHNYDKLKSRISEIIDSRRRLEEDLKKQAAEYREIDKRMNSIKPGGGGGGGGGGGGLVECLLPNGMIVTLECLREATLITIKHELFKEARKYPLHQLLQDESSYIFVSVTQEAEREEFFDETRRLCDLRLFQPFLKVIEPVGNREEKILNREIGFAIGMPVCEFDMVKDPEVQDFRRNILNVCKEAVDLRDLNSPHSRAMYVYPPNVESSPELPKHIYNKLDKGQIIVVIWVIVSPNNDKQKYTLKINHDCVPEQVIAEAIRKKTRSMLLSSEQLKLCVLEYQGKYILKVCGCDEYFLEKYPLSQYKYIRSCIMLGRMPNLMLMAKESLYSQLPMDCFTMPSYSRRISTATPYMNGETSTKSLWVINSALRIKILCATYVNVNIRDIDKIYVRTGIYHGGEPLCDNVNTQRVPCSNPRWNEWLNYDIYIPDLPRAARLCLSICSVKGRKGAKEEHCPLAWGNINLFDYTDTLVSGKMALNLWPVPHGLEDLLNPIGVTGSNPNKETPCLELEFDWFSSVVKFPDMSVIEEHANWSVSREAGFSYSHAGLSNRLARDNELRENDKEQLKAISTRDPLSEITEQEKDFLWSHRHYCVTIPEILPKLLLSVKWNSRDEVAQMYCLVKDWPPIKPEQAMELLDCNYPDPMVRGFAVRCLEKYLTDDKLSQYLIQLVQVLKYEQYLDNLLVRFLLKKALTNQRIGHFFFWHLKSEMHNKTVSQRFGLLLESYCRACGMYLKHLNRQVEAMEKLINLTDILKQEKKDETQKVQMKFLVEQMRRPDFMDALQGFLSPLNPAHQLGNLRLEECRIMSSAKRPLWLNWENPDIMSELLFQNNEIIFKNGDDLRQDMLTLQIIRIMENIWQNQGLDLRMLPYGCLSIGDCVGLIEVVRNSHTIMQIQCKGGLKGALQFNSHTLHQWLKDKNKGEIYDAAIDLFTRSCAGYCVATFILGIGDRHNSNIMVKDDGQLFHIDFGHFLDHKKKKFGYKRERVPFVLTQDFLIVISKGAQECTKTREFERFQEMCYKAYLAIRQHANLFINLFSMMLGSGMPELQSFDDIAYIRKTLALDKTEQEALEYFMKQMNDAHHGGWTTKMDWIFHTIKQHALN

Row | SMILES | IC50 (PI3K alpha) [nM] | IC50 [1] [nM] | IC50 [2] [nM]
1 | Cc1nn(C)c(C)c1-n1c(=O)n(C)c2cnc3ccc(-c4cnc(Cl)c(N)c4)cc3c21 [Example 152.3, 8-(5-Amino-6-chloro-pyridin-3-yl)-3-methyl-1-(1,3,5-trimethyl-1H-pyrazol-4-yl)-1,3-dihydro-imidazo[4,5-c]quinolin-2-one] | 44 | 78 | 20
2 | CCOCc1cc(-c2ccc3ncc4c(c3c2)n(-c2cn(C(C)C)nc2C)c(=O)n4C)cnc1N [Example 166.3, 8-(6-Amino-5-ethoxymethyl-pyridin-3-yl)-1-(1-isopropyl-3-methyl-1H-pyrazol-4-yl)-3-methyl-1,3-dihydro-imidazo[4,5-c]quinolin-2-one] | 10 | 111 | 5
3 | CCOCc1cc(-c2ccc3ncc4c(c3c2)n(-c2cn(C)nc2Cl)c(=O)n4C)cnc1N [Example 166.4, 8-(6-Amino-5-ethoxymethyl-pyridin-3-yl)-1-(3-chloro-1-methyl-1H-pyrazol-4-yl)-3-methyl-1,3-dihydro-imidazo[4,5-c]quinolin-2-one] | 9 | 11 | 1
4 | Cc1nn(C(C)C)cc1-n1c(=O)n(C)c2cnc3ccc(-c4cnc5c(c4)COC(=O)N5C)cc3c21 [Example 170, 1-(1-Isopropyl-3-methyl-1H-pyrazol-4-yl)-3-methyl-8-(1-methyl-2-oxo-1,4-dihydro-2H-pyrido[2,3-d][1,3]oxazin-6-yl)-1,3-dihydro-imidazo[4,5-c]quinolin-2-one] | 55 | 607 | 79
5 | Cc1nn(C)cc1-n1c(=O)n(C)c2cnc3ccc(-c4cncc(N(C)C5CCC5)c4)cc3c21 [Example 174, 8-[5-(Cyclobutyl-methyl-amino)-pyridin-3-yl]-1-(1,3-dimethyl-1H-pyrazol-4-yl)-3-methyl-1,3-dihydro-imidazo[4,5-c]quinolin-2-one] | 17 | 12 | 3
6 | Cc1cc(-n2c(=O)n(C)c3cnc4ccc(-c5cnc(C)c(O)c5)cc4c32)n(C)n1 [Example 185.2, 1-(2,5-Dimethyl-2H-pyrazol-3-yl)-8-(5-hydroxy-6-methyl-pyridin-3-yl)-3-methyl-1,3-dihydro-imidazo[4,5-c]quinolin-2-one] | 11 | 158 | 32
7 | [2H]C([2H])([2H])OCc1ncc(-c2ccc3ncc4c(c3c2)n(-c2cn(C)nc2C)c(=O)n4C)cc1OCC [Example 198, 1-(1,3-Dimethyl-1H-pyrazol-4-yl)-8-(5-ethoxy-6-trideuteromethoxymethyl-pyridin-3-yl)-3-methyl-1,3-dihydro-imidazo[4,5-c]quinolin-2-one] | 17 | 89 | 3
8 | CCn1cc(-n2c(=O)n(C)c3cnc4ccc(-c5cncc(C(C)(C)C#N)c5)cc4c32)c(C)n1 [Example 220.2, 2-{5-[1-(1-Ethyl-3-methyl-1H-pyrazol-4-yl)-3-methyl-2-oxo-2,3-dihydro-1H-imidazo[4,5-c]quinolin-8-yl]-pyridin-3-yl}-2-methyl-propionitrile] | 10 | 45 | 3
9 | CCNC(=O)c1cc(-c2ccc3ncc4c(c3c2)n(-c2cn(C(C)C)nc2C)c(=O)n4C)cnc1N [Example 227, 2-Amino-N-ethyl-5-[1-(1-isopropyl-3-methyl-1H-pyrazol-4-yl)-3-methyl-2-oxo-2,3-dihydro-1H-imidazo[4,5-c]quinolin-8-yl]-nicotinamide] | 71 | 240 | 12
10 | COc1ncc(-c2ccc3ncc4c(c3c2)n(-c2cc(C)nn2C)c(=O)n4C)c(OC)n1 [Example 234.4, 8-(2,4-Dimethoxy-pyrimidin-5-yl)-1-(2,5-dimethyl-2H-pyrazol-3-yl)-3-methyl-1,3-dihydro-imidazo[4,5-c]quinolin-2-one] | 64 | 119 | 10.1
11 | CNc1ccc(-c2ccc3ncc4c(c3c2)n(-c2cn(C(C)C)nc2C)c(=S)n4C)cn1 [Example 241, 1-(1-isopropyl-3-methyl-1H-pyrazol-4-yl)-3-methyl-8-(6-(methylamino)pyridin-3-yl)-1H-imidazo[4,5-c]quinoline-2(3H)-thione] | 18 | 9 | < 0.5
12 | CCn1cc(-n2c(=O)n(C)c3cnc4ccc(-c5ccc(OC)c(OC)c5)nc4c32)c(C)n1 [Example 254, 8-(3,4-Dimethoxy-phenyl)-1-(1-ethyl-3-methyl-1H-pyrazol-4-yl)-3-methyl-1,3-dihydro-1,3,5,9-tetraaza-cyclopenta[a]naphthalen-2-one] | 11 | 116 | 58
